According to US9856259B2, “Heterocyclic compounds and uses thereof” (Plexxikon Inc., priority 2014, dated 2018):

System: cancer cell lines / MV-4-11 Myc reporter cell line
Test: Bromodomain cell assays of Example 8 (at least one of them)
Type: cell-based
Conditions: Homo sapiens, MV4-11; at least one of the bromodomain cell assays described in Example 8
Procedure: In this study, we test compounds in different cancer cell lines. MV-4-11 and MOLM-13 are AML cell lines harboring a MLL-AF4 and MLL-AF9 translocation, respectively. MM.1S is a multiple myeloma cell line. SK—N-AS, IMR-32 and SK-N-BE(2) are neuroblastoma cell lines. IMR-32 and SK-N-BE(2) cell lines harbor MYCN amplifications.
MV-4-11, MM.1S, IMR-32, SK-N-AS and SK-N-BE(2) were obtained from ATCC (IL, USA) and MOLM-13 were purchased from DSMZ (Braunschweig, German). Cells are cultured as recommended by their sources. For growth inhibition studies 3000 cells are seeded in wells of a 96-well plate in 75 μL of culture media. After several hours, growth media containing compounds of formula (I) are added to the wells. Compound at a maximal concentration of 5 mM was serially diluted 1:3 for a total of 8 point titration with DMSO as a control. A 1 μL aliquot of each dilution point is added to 249 μL growth media and 75 μL is added to each well containing cells, providing 10 μM compound at the maximum concentration point. The final concentration of DMSO in all wells is 0.2%. Cells are incubated for 72 hours, and 25 μL of CellTiter Glo Reagent (Promega Ga., USA) is added to each well. Plates are shaken for approximately 10 minutes and chemiluminescent signal is read on Tecan microplate reader. The measured luminescence correlates directly with cell number.
All data is normalized to the mean of eight DMSO high control wells on each plate. A four parameter curve fit of the following formula was then applied: Y=a+(b−a)/(1+(x/c)^d) Where ‘a’ is the minimum, ‘b’ is the maximum, ‘c’ is the pIC50 and ‘d’ is the Hill slope. […] Myc Reporter Assay
In MV-4-11 cells, BRD2, BRD3 and BRD4 bind to the promoter region of MYC and regulate its transcription (Dawson M A et al. 2011). The literature bromodomain inhibitor iBET 151 could disrupt BRD4 recruitment to the MYC promoter and subsequently downregulate c-myc transcription (Dawson M A et al. 2011). Myc protein is a transcription factor that heterodimerizes with an obligatory partner Max and regulates the transcription of genes important for cell proliferation, differentiation, and apoptosis. This Myc reporter assay is used to monitor the inhibitory effect of compound of formula (I) on Myc dependent gene expression. Effective compounds could have potential therapeutic effects in Myc-driven tumors.
The MV-4-11 Myc reporter cell line is established by infecting MV-4-11 with VSV-g pseudotyped lentivirus expressing the firefly luciferase gene under the control of a minimal (m) CMV promoter and tandem repeats of the E-box transcriptional response element (TRE) (Qiagen IL, USA) and selecting cells in 2.5 μg/ml Puromycin.
The MV-4-11 Myc reporter cell line is maintained in Iscove's Modified Dulbecco's Medium containing 10% FBS, 1% PenStep and 2.5 μg/ml Puromycin. Cells are incubated at 37° C. in a humidified atmosphere with 5% CO2. 25,000 cells are seeded in 96-well plate in 50 μL of culture media. After several hours, growth media containing 2× compounds are added to the wells. Compound at a maximal concentration of 5 mM is serially diluted 1:3 for a total of 8 point titration. A 1 μl aliquot of each dilution point is added to 249 μl growth media and 50 μl is added to each well containing cells, providing 10 μM compound at the maximum concentration point. DMSO treated cells serve as a high control and 10 μM JQ1 treated cells serve as a low control. Cells are incubated for a further 24 hours and 25 μL of CellTiter-Fluo Reagent (Promega Ga., USA) is added to each well. Plates are shaken for approximately 2 minutes and incubated at 37° C. for 0.5 hour. Fluorescence signal is read in a Tecan Plate reader (λex=400 nm, λcm=505 nm). 25 μL of One-Glo Reagent (Promega Ga., USA) is then added to the plates. Chemiluminescent signal is read on Tecan plate reader. Values from the wells with no cells are subtracted from all samples for background correction. […]

IC50, < 10 µM:
Cc1noc(C)c1-c1ccc2[nH]nc(Cc3ccccc3)c2c1 [Compound P-2035, 4-(3-benzyl-1H-indazol-5-yl)-3,5-dimethyl-isoxazole]
CCOC(=O)c1ccc(-n2nc(Cc3ccccc3)c3cc(-c4c(C)noc4C)ccc32)c(F)c1 [Compound P-2036, ethyl 4-[3-benzyl-5-(3,5-dimethylisoxazol-4-yl)indazol-1-yl]-3-fluoro-benzoate]
Cc1noc(C)c1-c1ccc2c(c1)c(Cc1ccccc1)nn2-c1ccc(C(=O)O)cc1F [Compound P-2037, 4-[3-benzyl-5-(3,5-dimethylisoxazol-4-yl)indazol-1-yl]-3-fluoro-benzoic acid]
Cc1noc(C)c1-c1cnc2c(I)nn([C@@H](C)c3ccccn3)c2c1 [Compound P-2091, 4-[3-iodo-1-[(1S)-1-(2-pyridyl)ethyl]pyrazolo[4,3-b]pyridin-6-yl]-3,5-dimethyl-isoxazole]
Cc1noc(C)c1-c1cnc2c(-c3ccc(C(=O)O)cc3)nn([C@@H](C)c3ccccn3)c2c1 [Compound P-2093, 4-[6-(3,5-dimethylisoxazol-4-yl)-1-[(1S)-1-(2-pyridyl)ethyl]pyrazolo[4,3-b]pyridin-3-yl]benzoic acid]
Cc1noc(C)c1-c1cnc2c(-c3ccc(CC(=O)O)cc3)nn([C@@H](C)c3ccccn3)c2c1 [Compound P-2094, 2-[4-[6-(3,5-dimethylisoxazol-4-yl)-1-[(1S)-1-(2-pyridyl)ethyl]pyrazolo[4,3-b]pyridin-3-yl]phenyl]acetic acid]
Cc1noc(C)c1-c1cnc2c(I)nn(C(c3ccccc3)c3ccccn3)c2c1 (centres unmarked) [Compound P-2095, 4-[3-iodo-1-[phenyl(2-pyridyl)methyl]pyrazolo[4,3-b]pyridin-6-yl]-3,5-dimethyl-isoxazole]
Cc1noc(C)c1-c1cnc2c(-c3ccc(C(=O)O)cc3)nn(C(c3ccccc3)c3ccccn3)c2c1 (centres unmarked) [Compound P-2096, 4-[6-(3,5-dimethylisoxazol-4-yl)-1-[phenyl(2-pyridyl)methyl]pyrazolo[4,3-b]pyridin-3-yl]benzoic acid]
Cc1noc(C)c1-c1cnc2c(-c3ccc(CC(=O)O)cc3)nn(C(c3ccccc3)c3ccccn3)c2c1 (centres unmarked) [Compound P-2097, 2-[4-[6-(3,5-dimethylisoxazol-4-yl)-1-[phenyl(2-pyridyl)methyl]pyrazolo[4,3-b]pyridin-3-yl]phenyl]acetic acid]
Cc1noc(C)c1-c1cnc2c(-c3cnn(CC(F)(F)F)c3)nn([C@@H](C)c3ccccn3)c2c1 [Compound P-2098, 3,5-dimethyl-4-[1-[(1S)-1-(2-pyridyl)ethyl]-3-[1-(2,2,2-trifluoroethyl)pyrazol-4-yl]pyrazolo[4,3-b]pyridin-6-yl]isoxazole]
Cc1noc(C)c1-c1cnc2c(-c3cnn(C)c3)nn([C@@H](C)c3ccccn3)c2c1 [Compound P-2099, 3,5-dimethyl-4-[3-(1-methylpyrazol-4-yl)-1-[(1S)-1-(2-pyridyl)ethyl]pyrazolo[4,3-b]pyridin-6-yl]isoxazole]
Cc1noc(C)c1-c1cnc2[nH]nc(Cc3ccccc3)c2c1 [Compound P-2100, 4-(3-benzyl-1H-pyrazolo[3,4-b]pyridin-5-yl)-3,5-dimethyl-isoxazole]
CCOC(=O)c1ccc(-n2nc(Cc3ccccc3)c3cc(-c4c(C)noc4C)cnc32)c(F)c1 [Compound P-2101, ethyl 4-[3-benzyl-5-(3,5-dimethylisoxazol-4-yl)pyrazolo[3,4-b]pyridin-1-yl]-3-fluoro-benzoate]
Cc1noc(C)c1-c1cnc2c(c1)c(Cc1ccccc1)nn2-c1ccc(C(=O)O)cc1F [Compound P-2102, 4-[3-benzyl-5-(3,5-dimethylisoxazol-4-yl)pyrazolo[3,4-b]pyridin-1-yl]-3-fluoro-benzoic acid]
